Measured values published in patent US20220226298A1, “GPR40 AGONISTS” (Kallyope, Inc., priority 2019, published 2022).

These compounds were tested against T1, human GPR40 (Homo sapiens, UniProt O14842) (assay: Inositol phosphate accumulation assay (IP1 HTRF) in CHO-K1 cells expressing human GPR40). Details: 90 min stimulation.
T1 construct: host or cells: CHO-K1
Format: cell-based
Procedure: CHO-KI cells expressing human GPR40 were purchased from DiscoverX (95-1005C2). HEK293 cells expressing mouse FFAR1 were prepared using a mouse FFAR1 carrying plasmid purchased from OriGene Technologies (MR222997). The cells were transfected using Lipofectamine 2000 using manufacturer instructions and stable cell line was established from a single cell using geneticine selection. Assay ready frozen (ARF) cells were prepared and used throughout the study.
The assay was performed in a 384-well plate format using IP1 assay kit from Cis-Bio. ARF cells expressing FFAR1 (mouse and human) were thawed, washed and then plated in the appropriate medium (F12 based medium for CHO hFFAR1 and DMEM based medium for HEK293 mFFAR1—both were supplemented with 10% FBS and penicillin/streptomycin). 20 μL of 3.5×10^5 cells/mL were plated on a Poly D-Lysine coated 384-well white plate. The cells were then incubated for 16 hr at 37° C./5% CO2. After 16 hr the medium was removed and 15 μL of stimulation buffer containing the test compounds was added to the cells. The plates were then incubated for 90 min at 37° C./5% CO2. 5 μL of detection buffer (prepared as described in the IP-one kit) was added to each well and the plates were incubated at RT for 1 hr.
[…] was measured using ClarioSTAR plate reader, calculating the ratio between emissions at 665 nm and 620 nm (HTRF ratio). HTRF ratio for positive (Max) and negative (Min) controls were used to normalize HTRF data and generate values for % activity. EC50 and Max activity values were determined using a standard 4-parameter fit.

T1 sequence (O14842 whole entry): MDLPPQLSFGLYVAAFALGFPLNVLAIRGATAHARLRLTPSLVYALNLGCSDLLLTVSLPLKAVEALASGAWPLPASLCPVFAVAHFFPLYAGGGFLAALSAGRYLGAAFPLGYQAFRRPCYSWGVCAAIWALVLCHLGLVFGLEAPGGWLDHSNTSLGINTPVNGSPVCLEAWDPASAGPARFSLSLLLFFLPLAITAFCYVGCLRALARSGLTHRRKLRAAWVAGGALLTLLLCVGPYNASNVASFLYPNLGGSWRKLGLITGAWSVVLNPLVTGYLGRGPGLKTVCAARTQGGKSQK

Row | EC50 [nM] | SMILES
1 | 10 to 100 | COc1ccc(F)c(-c2ccc(C(=O)Oc3cccc([C@@H](CC(=O)O)C4CC4)c3)cc2)c1 [Compound 1, (S)-3-cyclopropyl-3-(3-((2′-fluoro-5′-methoxy-[1,1′-biphenyl]-4-carbonyl)oxy)phenyl) propanoic acid]
2 | 10 to 100 | O=C(O)C[C@H](c1cccc(OC(=O)c2ccc(-c3cc(O)ccc3F)cc2)c1)C1CC1 [Compound 2]
3 | 10 to 100 | COc1cc(-c2ccc(C(=O)Oc3cccc([C@@H](CC(=O)O)C4CC4)c3)cc2)c(F)cn1 [Compound 3]
4 | > 500 | COc1ccc(F)c(-c2ccc(C(=O)Oc3cccc([C@@H](CC(=O)O)C4CC4)c3)nc2)c1 [Compound 4]
5 | > 500 | COc1ccc(F)c(-c2nocc2C(=O)Oc2cccc([C@@H](CC(=O)O)C3CC3)c2)c1 [Compound 5, (3S)-3-cyclopropyl-3-[3-[3-(2-fluoro-5-methoxy-phenyl)isoxazole-4-carbonyl]oxyphenyl]propanoic acid]
6 | 10 to 100 | COc1ccc(F)c(-c2ccc(C(=O)Oc3cccc([C@@H](CC(=O)O)C4CC4)c3)c(C)c2)c1 [Compound 6]
7 | > 500 | COc1ccc(F)c(-c2cc(C(=O)Oc3cccc([C@@H](CC(=O)O)C4CC4)c3)on2)c1 [Compound 7, (S)-3-cyclopropyl-3-(3-((3-(2-fluoro-5-methoxyphenyl)isoxazole-5-carbonyl)oxy)phenyl)propanoic acid]
8 | 100 to 500 | COc1cc(-c2ccc(C(=O)Oc3cccc([C@@H](CC(=O)O)C4CC4)c3)c(C)c2)c(F)cn1 [Compound 10, (S)-3-cyclopropyl-3-(3-((4-(5-fluoro-2-methoxypyridin-4-yl)-2-methylbenzoyl)oxy)phenyl)propanoic acid]
9 | 100 to 500 | COc1cc(-c2ccc(C(=O)Oc3cccc([C@@H](CC(=O)O)C4CC4)c3)c(F)c2)ccn1 [Compound 17]
10 | 100 to 500 | COc1cc(-c2cc(C)c(C(=O)Oc3cccc([C@@H](CC(=O)O)C4CC4)c3)c(F)c2)ccn1 [Compound 18]

Further lines, the compound ahead of its results:

Row | SMILES | EC50 [nM]
11 | COc1cc(-c2cc(C)c(C(=O)Oc3cccc([C@H](CP(C)(=O)O)C4CC4)c3)cc2CN(C(C)C)C(C)C)c(F)cn1 (single isomer, unassigned) [Compound 71a] | > 500
12 | COc1cc(-c2cc(C)c(C(=O)Oc3cccc([C@@H](CP(C)(=O)O)C4CC4)c3)cc2CN(C(C)C)C(C)C)c(F)cn1 (single isomer, unassigned) [Compound 71b] | > 500
13 | CC(c1cc(C(F)(F)F)ccc1C(F)(F)F)N1CCC(C(=O)Oc2cccc([C@@H](CC(=O)O)C3CC3)c2)C1 (stereo partly drawn) [Compound 8, (3S)-3-(3-((1-(1-(2,5-bis(trifluoromethyl)phenyl)ethyl)pyrrolidine-3-carbonyl)oxy)phenyl)-3-cyclopropylpropanoic acid] | 10 to 100
14 | CC(c1cc(C(F)(F)F)ccc1C(F)(F)F)N1CCC(C(=O)Oc2cccc([C@@H](CC(=O)O)C3CC3)c2)CC1 (stereo partly shown) [Compound 9] | 10 to 100
15 | CCN(Cc1cc(C(=O)Oc2cccc([C@@H](CC(=O)O)C3CC3)c2)c(C)cc1-c1cc(OC)ncc1F)C(C)C [Compound 11, (S)-3-cyclopropyl-3-(3-((5-((ethyl(isopropyl)amino)methyl)-4-(5-fluoro-2-methoxypyridin-4-yl)-2-methylbenzoyl)oxy)phenyl)propanoic acid] | 100 to 500
16 | CC(c1cc(C(F)(F)F)ccc1C(F)(F)F)N1CC(C)(C(=O)Oc2cccc([C@@H](CC(=O)O)C3CC3)c2)C1 (stereo partly shown) [Compound 12] | 10 to 100
17 | CCN(Cc1cc(-c2cc(OC)ncc2F)ccc1C(=O)Oc1cccc([C@@H](CC(=O)O)C2CC2)c1)C(C)C [Compound 13] | > 500
18 | COc1cc(-c2ccc(C(=O)Oc3cccc([C@H](C4CC4)[C@H](C)C(=O)O)c3)c(C)c2)c(F)cn1 [Compound 14] | ≤ 10
19 | COc1cc(-c2cc(F)c(C(=O)Oc3cccc([C@@H](CC(=O)O)C4CC4)c3)cc2CN(C(C)C)C(C)C)ccn1 [Compound 16, (S)-3-cyclopropyl-3-(3-((5-((diisopropylamino)methyl)-2-fluoro-4-(2-methoxypyridin-4-yl)benzoyl)oxy)phenyl)propanoic acid] | ≤ 10
